Measured values published in patent US12357608B2, “Methods and compositions utilizing RRx-001 combination therapy for radioprotection” (priority 2018, dated 2025).

How the values were obtained:
U937 cells = test: Western blotting of ARE proteins in U937 monocytes and macrophages; type: cell-based, human; settings: 3 mM RRx-001 16 hours
Method: (§1) Expression of ARE proteins was assayed in hMSC, macrophages, and monocytes following in vitro irradiation of the cells, which were pretreated with RRx-001 or vehicle. Protein expression was assayed by Western blotting and protein quantification.
(§2) hMSC were treated for 16 hours with […] RRx-001 or the vehicle control (0.05% DMSO), irradiated at 10 Gy or sham-irradiated and the protein collected 8 or 24 hours post-sham or irradiation. Human monocytic leukemic THP-1 and U937 cells were differentiated into macrophages with 50 nM Phorbol 12-myristate 13-acetate (PMA) for 24 hours before treatment. Differentiated and non-differentiated cells were treated with […] RRx-001 or 0.05% DMSO (vehicle control) for 16 hours prior to radiation. The cells were irradiated at 5 Gy or sham-irradiated and collected 4-8 hours later for both analysis. For each experiment, duplicates of each sample were run.

CD2F1 male mice [1] = test: Survival following lethal total body irradiation (TBI); type: in vivo
Method: In this Example, the effects of systemic administration of RRx-001 on survival in response to a lethal dose of radiation was assayed in mice. CD2F1 male mice 9.5-11 weeks old were administered a single dose of RRx-001 by intraperitoneal (IP) injection 24 hours prior to a lethal radiation dose. 24 mice received 10 mg/kg RRx-001 (formulated in 5% DMSO in sterile H2O) and 24 mice received the vehicle control (5% DMSO) in sterile H2O only).
The mice were subjected to total body irradiation (TBI) with 9.35 Gy (LD70/30) at 0.6 Gy/min using High-level Cobalt-60. Unanesthetized mice were placed in well-ventilated Plexiglas restrainers and irradiated bilaterally. Sham-irradiated mice were also placed in identical Plexiglas restrainers and kept in a room shielded from irradiation at the same time. In each experiment, the dose to the abdominal cores of the animals was delivered at a dose rate of approximately 0.6 Gy/min. Dosimetry was performed prior to the irradiation of the animals using the highly accurate alanine/electron spin resonance (ESR) dosimetry system (American Society for Testing and Materials, Standard E 1607) to measure dose rates (to water) in the cores of acrylic mouse phantoms, which were located in the compartments of the exposure rack. A calibration curve based on standard alanine calibration dosimeters provided by the National Institute of Standards and Technology (NIST, Gaithersburg, MD) was used to measure the doses. The accuracy of the dose rate calibrations has been verified several times using the services of the National Physics Laboratory (UK National Standards Laboratory, London, UK) and the M.D. Anderson Cancer Center (Houston, TX). The corrections applied to the measured dose rates in the phantoms were for a small difference in the Co-60 energy between the mass energy-absorption coefficients for soft tissue and water, as well as source decay. The radiation field was uniform within ±1.2%.
Mice were monitored at least twice a day for 30 days post-irradiation. During the critical period (days 10-20), mice were monitored at least three times a day with no more than 10 hours between observations. Mice displaying any signs of discomfort received food in their cage as a wet mash. Mice displaying overt dyspnea, weight loss, lethargy, or other markers of moribundity and appearing to be in distress were humanely euthanized in a separate room using carbon dioxide gas followed by cervical dislocation after breathing stopped as a confirmatory method of euthanasia. This experiment was repeated for a total of n=24 mice per group.
Survival curves were estimated using the Kaplan-Meier method and were compared using a two-sided log-rank test at the 0.05 significance level. P-values were considered statistically significant if less than 0.05.

[2] = tested on: human normal bone marrow mesenchymal stem cells (hMSC); test: Western blotting of antioxidant response element (ARE) proteins in irradiated hMSC; type: cell-based; settings: 5 mM RRx-001 16 hours
Method: Antioxidant response element (ARE) genes such as heme oxygenase 1 (HO-1), NAD(P)H Dehydrogenase [Quinone] 1 (NQO-1) and Superoxide Dismutase (SOD) are involved in the detoxification and elimination of reactive oxidants.
as §1, §2

CD2F1 male mice [3] = test: Complete blood count with differential and reticulocytes after sublethal TBI or sham irradiation; type: in vivo; settings: 7 Gy TBI
Method: To determine the pathophysiological effects of RRx-001 on hematopoietic protection in mice, CD2F1 male mice were treated with 10 mg/kg RRx-001 or the vehicle control 24 hours prior to a sublethal dose of TBI (7 Gy at 0.6 Gy/min using High-level Cobalt-60) or sham irradiation (day 0) according to the table below.
CD2F1 male mice (n=3/group) were divided into 4 experimental groups: 1) irradiation+vehicle, 2) irradiation+RRx-001, 3) sham-irradiation+vehicle and 4) sham-irradiation+RRx-001. Either 10 mg/kg RRx-001 or the vehicle control were IP injected 24 hours prior to either irradiation or sham-irradiation (day 0). On days 2, 7, 14, 21, and 28 post-irradiation (day 0) mice were humanely euthanized. Blood, bone marrow, and sternebrae were then collected. This experiment was performed in duplicate for a total of n=6 mice/group/time point.
Post-irradiation whole blood was obtained by terminal cardiocentesis. Blood samples were immediately transferred into EDTA tubes (Sarstedt Inc., Newton, NC) and gently rotated until the time of analysis. The tubes were analyzed for a complete blood count with differential and reticulocytes using the ADVIA 2120 (Siemens Medical Solutions Diagnostics, Dublin, Ireland), and Microsoft software version 5.9 (Microsoft Corp., Redmond, WA) to generate the data.
Blood parameters were compared between treatment groups using an analysis of variance (ANOVA). The Wilcoxon test was also used for sensitivity and to potentially address data departures from normality. A longitudinal mixed model repeated measures was also implemented to provide a more complete data analysis of the sham-irradiated treatment groups' difference in overall time profile mean based on the blood parameters. Bone marrow data (megakaryocytes and grade) statistical analysis was carried out using a parametric test consisting of a general linear model analysis of variance (ANOVA with factors consisting of treatment group and pathologist) and the Kruskal-Wallis nonparametric test. The statistical data analysis was carried out using R software (Version 3.4.3, 2016) and the graphs made using GraphPad Prism version 7.03 (GraphPad Software, La Jolla, CA).

[4] = days 2 and 21 post-irradiation, vs vehicle control

SMILES: O=C(CBr)N1CC([N+](=O)[O-])([N+](=O)[O-])C1 [RRx-001, 2-bromo-1-(3,3-dinitroazetidin-1-yl)ethan-1-one]
- NQO-1 expression (U937 cells; U937 macrophages): no change
- SOD-1 expression (U937 cells; U937 macrophages): no change
- HO-1 production (U937 cells; U937 macrophages, sham and irradiated groups): increased HO-1 production
- HO-1 expression (U937 cells; U937 monocyte fraction): significant increase in HO-1
- increase in mean survival time compared to the vehicle control (CD2F1 male mice [1]; 10 mg/kg 24 hours prior to lethal TBI): 7 days
- increase in survival (CD2F1 male mice [1]; 10 mg/kg 24 hours prior to lethal TBI, vs vehicle control): 33.4%
- survival times, means±standard errors (CD2F1 male mice [1]; 10 mg/kg IP 24 hours prior to 9.35 Gy TBI, 30-day observation, N=24/group): 27.2 ± 1.1 days
- reduction in the 30-day death risk (CD2F1 male mice [1]; one dose 10 mg/kg IP 24 hours prior to 9.35 Gy (LD70/30) TBI, vs vehicle control irradiated mice): ~33.4%
- SOD1 and 2 expression ([2]; 10 Gy irradiation, 8 hours): slight increase
- HO-1 expression increase ([2]; 24 hours post-sham or irradiation): 2-3.5 fold
- NQO-1 expression ([2]; all groups): slightly reduced
- HO-1 expression increase ([2]; sham and 10 Gy irradiated groups, 8 hours post-sham or irradiation): 22-26 fold
- % RETIC (CD2F1 male mice [3]; day 14, vs control mice): significantly increased
- ALC counts (CD2F1 male mice [3]; day 14, vs controls): significantly increased
- WBC counts (CD2F1 male mice [3]; day 14, vs controls): significantly increased
- % HCT (CD2F1 male mice [3]; day 14, vs irradiated control): significantly increased
- % RETIC (CD2F1 male mice [3]; day 28, vs vehicle controls): significantly increased
- absolute lymphocyte count (ALC) (CD2F1 male mice [3]; [4]): No significant difference
- absolute neutrophil count (ANC) (CD2F1 male mice [3]; [4]): No significant difference
- percent hematocrit (% HCT) (CD2F1 male mice [3]; [4]): No significant difference
- percent reticulocytes (% RETIC) (CD2F1 male mice [3]; [4]): No significant difference
- platelets (PLT) (CD2F1 male mice [3]; [4]): No significant difference
- white blood cells (WBC) (CD2F1 male mice [3]; [4]): No significant difference
- ANC (CD2F1 male mice [3]; days 7 and 14, vs control): significantly increased
- PLT (CD2F1 male mice [3]; days 7 and 14, vs control): significantly increased
- red blood cells and hemoglobin (CD2F1 male mice [3]; irradiated RRx-001 vs irradiated vehicle group): not significantly different
- white blood cells and red blood cell production (CD2F1 male mice [3]; irradiated mice vs irradiated vehicle control): significant increase
